Read-outs that look alike come from different tables or passages of the source. Each block holds one molecule with its values, some of them ahead of it. Starred links: 1 amine or outer side, 2 acyl side, 3 side chain; linkers in the order of their positions; H or OH if unused. Positions of bridges follow the written chain, without caps; N, C: chain ends. Non-standard residues stand in square brackets, D forms with d. Residues, ends and D or L forms follow the SMILES beside them. No end group written: not given here. *: point of attachment. X2 = COC1O[C@H](C(=O)[*:2])[C@@H](O)[C@H](O)[C@H]1N[*:1]; Phe(4-NH2) = Nc1ccc(C[C@H](N)C(=O)O)cc1; Hydrocinnamoyl = O=C(CCc1ccccc1)*; Hyp = O=C(O)[C@@H]1C[C@@H](O)CN1; Cha = N[C@@H](CC1CCCCC1)C(=O)O; dCha = N[C@H](CC1CCCCC1)C(=O)O; Nle = CCCC[C@H](N)C(=O)O; Orn = NCCC[C@H](N)C(=O)O
Experiments:
[1] = Solubility determination for selected C5aR-antagonists; assay type: physicochemical; conditions: for Solubility in 20 mM HEPES pH 7.4: 20 mM HEPES pH 7.4, 24 h at RT; for solubility: aqueous HEPES buffer (pH 7.4)
Description: Solubility of compounds was determined by the following procedure: 20 μl of a 10 mM stock solution (in DMSO) of the compound were diluted in 980 μl of the solvent to be tested. After incubation for 24 h at RT under shaking the samples are centrifuged at 11.000 rpm in an Eppendorf centrifuge. The supematant is determined by photometry. […] Therefor the compound was suspended at 10 mg/ml in the solvent systems of choice. The undissolved part was removed by centrifugation after 24 h. The UV-absorption of the supernatant was measured and compared to a respective reference value 60% MeOH).

human C5aR (CD88) [2] = biological target: T1, human C5aR (CD88) (Homo sapiens, UniProt P21730); assay: Determination of the IC50 value in an enzyme release assay (functional assay, antagonistic activity); assay type: cell-based; conditions: for IC50-value compared to compound 40 (in words): arginine replaced by hydrophobic substitutions
T1 construct: expressed in transfected cells; host or cells: rat basophilic leukemia cells (RBL)
T1 sequence (P21730 1-350): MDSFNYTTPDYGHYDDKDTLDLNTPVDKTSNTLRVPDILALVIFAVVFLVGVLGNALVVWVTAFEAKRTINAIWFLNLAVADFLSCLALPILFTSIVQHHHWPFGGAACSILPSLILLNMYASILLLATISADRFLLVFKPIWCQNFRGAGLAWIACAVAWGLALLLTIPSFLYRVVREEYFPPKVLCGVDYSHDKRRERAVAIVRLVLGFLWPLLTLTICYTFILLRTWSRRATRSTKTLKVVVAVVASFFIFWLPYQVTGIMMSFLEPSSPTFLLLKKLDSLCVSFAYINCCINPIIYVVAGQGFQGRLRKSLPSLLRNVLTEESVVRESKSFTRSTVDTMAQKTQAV

human C5aR (CD88) [3] = biological target: T1, human C5aR (CD88); assay: Determination of EC50 values in an enzyme release assay (agonistic activity, no C5a added); assay type: cell-based; conditions: cellular assay, up to a concentration of at least 1430 nM
Description: The determination of the EC50 value was performed in a way similar to the procedure described in example 11, with the only exception that 30 μl of the compound to be tested were mixed with 75 μl of the cell suspension described in example 11. There was no preincubation or addition of C5a for stimulation of the enzyme release.

human C5aR (CD88) [4] = biological target: T2, human C5aR (CD88) (human, UniProt P21730 1-350); assay: cell-based or functional assay
T2 sequence (looked up): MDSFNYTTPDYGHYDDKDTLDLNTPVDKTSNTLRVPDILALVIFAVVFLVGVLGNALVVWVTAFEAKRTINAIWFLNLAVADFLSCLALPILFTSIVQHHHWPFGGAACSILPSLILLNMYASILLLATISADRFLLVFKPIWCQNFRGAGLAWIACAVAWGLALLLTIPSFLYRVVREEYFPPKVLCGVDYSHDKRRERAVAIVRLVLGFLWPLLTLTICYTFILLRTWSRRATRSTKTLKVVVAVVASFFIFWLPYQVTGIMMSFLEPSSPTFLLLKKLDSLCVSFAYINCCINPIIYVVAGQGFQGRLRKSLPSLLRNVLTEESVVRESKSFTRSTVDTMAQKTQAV

human C5aR (CD88) [5] = biological target: T2, human C5aR (CD88); assay: cell-based or functional assay; remark: listed apart in the source
human C5aR (CD88) [6] = biological target: T2, human C5aR (CD88); assay: cell-based or functional assay; remark: listed apart in the source
[7] = noteworthy = IC50 of less than 200 nM in the functional assay

Molecule: CCCC[C@@H]1NC(=O)[C@H](Cc2c[nH]c3ccccc23)NC(=O)[C@@H](CC2CCCCC2)NC(=O)[C@@H]2CCCN2C(=O)[C@@H](NC(=O)[C@H](Cc2ccccc2)NC(=O)[C@H]2OC(OC)[C@H](NC(C)=O)[C@@H](O)[C@@H]2O)CCCNC1=O (stereo partly drawn) [Compound 4, X-Phe-[Orn-Pro-cha-Trp-Nle]; X = 2-acetamido-1-methyl-glucuronyl] (Ac-[X2]F[Orn]P[dCha]W[Nle]; lactam 3-C)
Solubility in 20 mM HEPES pH 7.4 [1]: 84 % of 200 μM
solubility [1]: 84%

Molecule: CCCC[C@@H]1NC(=O)[C@H](Cc2c[nH]c3ccccc23)NC(=O)[C@@H](CC2CCCCC2)NC(=O)[C@@H]2CCCN2C(=O)[C@@H](NC(=O)[C@H](Cc2ccccc2)NC(=O)[C@H](CCCCN)NC(C)=O)CCCNC1=O [Compound 43, Ac-Lys-Phe-[Orn-Pro-cha-Trp-Nle]] (Ac-KF[Orn]P[dCha]W[Nle]; lactam 3-C)
Solubility in 20 mM HEPES pH 7.4 [1]: 93 % of 200 μM
inhibitory activity (in words) (human C5aR (CD88) [2]; [7]): noteworthy inhibitory activity
agonistic activity (in words) (human C5aR (CD88) [3]): pure antagonists

Molecule: CCCC[C@@H]1NC(=O)[C@H](Cc2c[nH]c3ccccc23)NC(=O)[C@@H](CC2CCCCC2)NC(=O)[C@@H]2CCCN2C(=O)[C@@H](NC(=O)CCc2ccccc2)CCCNC1=O [Compound 41, Ph—CH2—CH2—CO-[Orn-Pro-cha-Trp-Nle]] (Hydrocinnamoyl-[Orn]P[dCha]W[Nle]; lactam 1-C)
inhibitory activity (in words) (human C5aR (CD88) [2]; [7]): noteworthy inhibitory activity
agonistic activity (in words) (human C5aR (CD88) [3]): pure antagonists

Molecule: CCCC[C@@H]1NC(=O)[C@H](Cc2c[nH]c3ccccc23)NC(=O)[C@@H](CC2CCCCC2)NC(=O)[C@@H]2CCCN2C(=O)[C@@H](NC(=O)[C@@H](N)Cc2ccccc2)CCCNC1=O [Compound 42, H-Phe-[Orn-Pro-cha-Trp-Nle]] (H-F[Orn]P[dCha]W[Nle]; lactam 2-C)
Solubility in 20 mM HEPES pH 7.4 [1]: 45 % of 200 μM
inhibitory activity (in words) (human C5aR (CD88) [2]; [7]): noteworthy inhibitory activity
agonistic activity (in words) (human C5aR (CD88) [3]): pure antagonists

Molecule: CC(=O)N[C@@H](Cc1ccccc1)C(=O)N[C@H]1CCCNC(=O)[C@H](CCCNC(=N)N)NC(=O)[C@H](Cc2c[nH]c3ccccc23)NC(=O)[C@@H](CC2CCCCC2)NC(=O)[C@@H]2CCCN2C1=O [Compound 40, Ac-Phe-[Orn-Pro-cha-Trp-Arg], reference compound]
Solubility in 20 mM HEPES pH 7.4 [1]: 94 % of 200 μM
solubility [1]: 94%

Molecule: CC(=O)N[C@@H](Cc1ccccc1)C(=O)N[C@H]1CCCNC(=O)[C@H](Cc2ccccc2)NC(=O)[C@H](Cc2c[nH]c3ccccc23)NC(=O)[C@@H](CC2CCCCC2)NC(=O)[C@@H]2C[C@@H](O)CN2C1=O [Compound 2, Ac-Phe-[Orn-Hyp-cha-Trp-Phe]] (Ac-F[Orn][Hyp][dCha]WF; lactam 2-C)
Solubility in 20 mM HEPES pH 7.4 [1]: 13 % of 200 μM
solubility [1]: 13%
inhibitory activity (in words) (human C5aR (CD88) [2]): noteworthy inhibitory activity
agonistic activity (in words) (human C5aR (CD88) [3]): pure antagonists

Molecule: {HOCH2(CHOH)4‑C═N‑O‑CH2‑CO}-F[Orn]P[dCha]W[Nle] (lactam 2-C) [HOCH2(CHOH)4-C═N-O-CH2-CO-Phe-[Orn-Pro-cha-Trp-Nle]]
EC50, agonistic activity, enzyme release assay (human C5aR (CD88) [4]): > 1430 nM
IC50 activity group, enzyme release assay (human C5aR (CD88) [5]): ≤ 200 nM

B1: Ac-Ala-[Orn-Pro-cha-Trp-Arg] (peptide)
peptide: Ac-A[Orn]P[dCha]WR
modifications: lactam 2-C
SMILES: CC(=O)N[C@@H](C)C(=O)N[C@H]1CCCNC(=O)[C@H](CCCNC(=N)N)NC(=O)[C@H](Cc2c[nH]c3ccccc23)NC(=O)[C@@H](CC2CCCCC2)NC(=O)[C@@H]2CCCN2C1=O
IC50, functional assay (human C5aR (CD88) [6]): > 30000 nM
IC50 activity group, enzyme release assay (human C5aR (CD88) [5]): > 2000 nM

Molecule: H-F[Orn]P[dCha]W[Nle] (lactam 2-C; not fully specified; printed as H-Phe-[Orn-Pro-cha-Trp-Nle]) [H-Phe-[Orn-Pro-cha-Trp-Nle]]
EC50, agonistic activity, enzyme release assay (human C5aR (CD88) [4]): > 1430 nM

B4: Ac-Phe-[Orn-Pro-ala-Trp-Arg] (peptide)
peptide: Ac-F[Orn]P[dA]WR
modifications: lactam (positions not given here); not fully specified (bridges); printed as Ac-Phe-[Orn-Pro-ala-Trp-Arg]
IC50, functional assay (human C5aR (CD88) [6]): > 30000 nM
IC50 activity group, enzyme release assay (human C5aR (CD88) [5]): > 2000 nM

Molecule: {Ph‑CH2‑CH2‑CO}-[Orn]P[dCha]W[Nle] (lactam 1-C) [Ph-CH2-CH2-CO-[Orn-Pro-cha-Trp-Nle]]
EC50, agonistic activity, enzyme release assay (human C5aR (CD88) [4]): > 1430 nM

B6: Ac-Phe-[Orn-Pro-cha-Trp-Ala] (peptide)
peptide: Ac-F[Orn]P[dCha]WA
modifications: lactam (positions not given here); not fully specified (bridges); printed as Ac-Phe-[Orn-Pro-cha-Trp-Ala]
IC50, functional assay (human C5aR (CD88) [6]): 5600 nM
IC50 activity group, enzyme release assay (human C5aR (CD88) [5]): > 2000 nM

B7: Ac-Phe-[Orn-Pro-cha-Trp-Paf] (peptide)
peptide: Ac-F[Orn]P[dCha]W[Phe(4-NH2)]
modifications: lactam (positions not given here); not fully specified (bridges); printed as Ac-Phe-[Orn-Pro-cha-Trp-Paf]
IC50, enzyme release assay (human C5aR (CD88) [6]): 30 nM
IC50 activity group, enzyme release assay (human C5aR (CD88) [5]): ≤ 50 nM

Further lines, with some results ahead:

Solubility in 20 mM HEPES pH 7.4 [1]: 8 % of 200 μM
solubility [1]: 8%
inhibitory activity (in words) (human C5aR (CD88) [2]; [7]): noteworthy inhibitory activity
agonistic activity (in words) (human C5aR (CD88) [3]): pure antagonists
Molecule: CC(=O)N[C@@H](Cc1ccccc1)C(=O)N[C@H]1CCCNC(=O)[C@H](Cc2ccccc2)NC(=O)[C@H](Cc2c[nH]c3ccccc23)NC(=O)[C@@H](CC2CCCCC2)NC(=O)[C@@H]2CCCN2C1=O [Compound 1, Ac-Phe-[Orn-Pro-cha-Trp-Phe]] (Ac-F[Orn]P[dCha]WF; lactam 2-C)
IC50-value compared to compound 40 (in words) (human C5aR (CD88) [2]): without a significant increase of the IC50-value

Solubility in 20 mM HEPES pH 7.4 [1]: 22 % of 200 μM
solubility [1]: 22%
inhibitory activity (in words) (human C5aR (CD88) [2]; [7]): noteworthy inhibitory activity
Molecule: CCCC[C@@H]1NC(=O)[C@H](Cc2c[nH]c3ccccc23)NC(=O)[C@@H](CC2CCCCC2)NC(=O)[C@@H]2CCCN2C(=O)[C@@H](NC(=O)[C@H](Cc2ccccc2)NC(C)=O)CCCNC1=O [Compound 28, Ac-Phe-[Orn-Pro-cha-Trp-Nle]] (Ac-F[Orn]P[dCha]W[Nle]; lactam 2-C)
IC50-value compared to compound 40 (in words) (human C5aR (CD88) [2]): without a significant increase of the IC50-value

IC50, enzyme release assay (human C5aR (CD88) [6]): 8700 nM
IC50 activity group, enzyme release assay (human C5aR (CD88) [5]): > 2000 nM
B2: Ac-Phe-[Orn-Pro-cha-Trp-Lys] (peptide)
peptide: Ac-F[Orn]P[dCha]WK
modifications: lactam (positions not given here); not fully specified (bridges); printed as Ac-Phe-[Orn-Pro-cha-Trp-Lys]

IC50, functional assay as used in this application (human C5aR (CD88) [6]): 1300 nM
IC50 activity group, enzyme release assay (human C5aR (CD88) [5]): ≤ 2000 nM
B3: Ac-Phe-Lys-Ala-Cha-Ala-Leu-ala-Tyr-OH (peptide)
peptide: Ac-FKA[Cha]AL[dA]Y-OH
SMILES: CC(=O)N[C@@H](Cc1ccccc1)C(=O)N[C@@H](CCCCN)C(=O)N[C@@H](C)C(=O)N[C@@H](CC1CCCCC1)C(=O)N[C@@H](C)C(=O)N[C@@H](CC(C)C)C(=O)N[C@H](C)C(=O)N[C@@H](Cc1ccc(O)cc1)C(=O)O

EC50, agonistic activity, enzyme release assay (human C5aR (CD88) [4]): > 1430 nM
IC50 activity group, enzyme release assay (human C5aR (CD88) [5]): ≤ 50 nM
B5: Ac-Phe-[Orn-Pro-cha-Trp-Nle] (peptide)
peptide: Ac-F[Orn]P[dCha]W[Nle]
modifications: lactam (positions not given here); not fully specified (bridges); printed as Ac-Phe-[Orn-Pro-cha-Trp-Nle]

IC50, functional assay (human C5aR (CD88) [6]): > 30000 nM
IC50 activity group, enzyme release assay (human C5aR (CD88) [5]): > 2000 nM
B8: Ac-Phe-[Orn-Pro-cha-Ala-Arg] (peptide)
peptide: Ac-F[Orn]P[dCha]AR
modifications: lactam (positions not given here); not fully specified (bridges); printed as Ac-Phe-[Orn-Pro-cha-Ala-Arg]
